The results in this text go back to paper PMC12454603 (Archives of Toxicology, 2025).

The experiment concerns ES-D3 cells (differentiation into contracting cardiomyocytes). Nature of the experiment: ES-D3 cell differentiation assay of the mouse embryonic stem cell test (mEST). Format: cell-based. On the procedure:
The developmental toxicity of the test compounds was assessed by the inhibitory effect on the differentiation of cells of the ES-D3 cell line into contracting cardiomyocytes. The assay was performed essentially as previously described (Kamelia et al. [2020]). The cells were cultured on the lid of a 96-well plate in 45 hanging drops (volume 20 µL/drop) at a concentration of 37,500 cells/ml. The 96 wells were filled with 250 µL PBS to maintain the humidity. Sterile Eppendorf lids were placed at the corners of the 96-well plate to prevent the hanging drops from contacting the 96-well plate. The plates were sealed with micropore tape and incubated at 37 °C with 5% CO2 in a humidified atmosphere for 72 h. After 72 h, 5 ml exposure medium was prepared for each concentration of each test compound with 0.25% DMSO in a 60 × 15 mm petri dish. The formed embryonic bodies (EBs) in the hanging drops on the lid of the 96-well plate were washed off with exposure medium and collected in the petri dish. The Petri dish was subsequently incubated at 37 °C with 5% CO2 in a humidified atmosphere for 48 h. After 48 h, the EBs were transferred to a 24-well plate filled with 1 ml exposure medium per well. Each well contained 1 EB. The 24-well plates were incubated at 37 °C with 5% CO2 in a humidified atmosphere for 120 h. The number of EBs with contracting cardiomyocytes and the undifferentiated EBs were counted under a microscope. In the solvent (DMSO) control, the presence of more than 21 EBs with contracting cardiomyocytes out of 24 EBs indicates a valid assay. In each experiment, 0.5 µM (0.065 µg/ml) 5-FU was used as a positive control. The result of the differentiation assay is expressed as the fraction of differentiated EBs of the total number of EBs.
The concentration–response data for the test compounds in the mEST were presented in three curves including curves for 1-day cytotoxicity, 5-day cytotoxicity, and 10-day differentiation assays. The obtained curves were fitted using the inhibition equation log (inhibitor) vs response (three parameters) option using GraphPad Prism software 5.0 (California, USA).

For the molecule `Cc1ccc2c(c1)cc1ccc3c(O)ccc4ccc2c1c43` [3-OH-8-MBaP, 3-Hydroxy-8-methyl-benzo[a]pyrene], the half-inhibitory concentration (IC50) (Mus musculus, Cardiomyocyte, 240 h, read-out: IC50 for inhibition of differentiation of ES-D3 cells into beating cardiomyocytes) was found to be 1400 nM. Also, the “Fold difference between IC50 of 3-OH-8-MBaP and of 3-OHBaP (3-OH-8-MBaP lower)” value (differentiation assay of the mEST) is 1.1 fold.
